Experimental data as given in US20010046491A1, “Tumor radiosensitization with mutant thymidine kinase in combination with a prodrug” (priority 2000, published 2001).

Tested on: rat RT2 glioma cells
Experiment: MTT growth/toxicity assay of adenovirus-infected RT2 cells exposed to GCV or ACV
Assay type: cell-based
Details: 1-100 microM; for effect of prodrug on cell growth/toxicity (MTT): control AdCMV (empty vector)-infected RT2 cells, 5 days
From the text: FIG. 2. Mutant HSV-TK75 sensitizes rat RT2 glioma cells to GCV and ACV more efficiently than wild type HSV-TK. Rat RT2 cells were infected with AdCMV (empty vector), AdCMV-TK, or AdCMV-TK75. At 2 days postinfection, cells were trypsinized, serially diluted, seeded in microtiter plates, and exposed to various doses of ACV or GCV. After 5 days, the plates were processed for growth/toxicity by MTT assay. (Contessa et al., 1999). Values were normalized to values from cells that were infected but not treated with GCV or ACV.
RT2 cells (a rat glioma cell line derived from Fischer 344 rats (Wilfong et al. 1973) that form tumors with features typical of human glioblastoma (Mahaley et al, 1977) were cultured in Dulbecco's modified Eagle's medium with 10% fetal bovine serum supplemented with penicillin/strepto-mycin. (Brust et al., 2000). Infected cells were exposed to Zovirax/ACV (manufactured by Glaxo Wellcome, Chapel Hill, N.C.) or GCV (kindly provided by Syntex, Palo Alto, Calif.) added to the medium. Cells were irradiated in medium with a ^60Co γ irradiator (Picker Zonegard V4 M60; Picker Interational, Cleveland, Ohio) set at 1 Gy/minute. Cell viability was determined by the 3-(4,5-dimethylthiazol-2-yl)-2,5-[…] bromide (MTT) assay. (Contessa et al, 1999). Terminal deoxynucleotidyltransferase-mediated deoxyuridine triphosphate nick end labeling assays were carried out with an ApopTag Direct kit from Oncor (Gaithersburg, Md.), according to the manufacturer's instructions, to provide a measurement of apoptosis.
It was subsequently determined whether infection of RT2 cells with the adenovirus expressing mutant HSV-TK 75 was able to predispose RT2 cells to killing by GCV and ACV more efficiently than cells infected with virus expressing wild type HSV-TK. At 2 days postinfection, infected cells were exposed to increasing concentrations (1-100 microM) of either GCV or ACV. As a control, we used an adenovirus(AdCMV) carrying no transgene.

Compound	effect of prodrug on cell growth/toxicity (MTT)	cell killing, comparison of prodrugs (AdCMV-TK-infected RT2 cells)
Nc1nc2c(ncn2COCCO)c(=O)[nH]1 [ACV, acyclovir]	little to no effect	
Nc1nc(O)c2ncn(COC(CO)CO)c2n1 [GCV, ganciclovir]	little to no effect	more effective than with ACV
